Measurements published in US7868026B2, “Therapeutic compounds” (Pfizer Inc., priority 2005, dated 2011).
Like-named read-outs stand apart in the source and are kept apart here.

Legend:
Type in all cases: biochemical
CYP3A4 [1] = biological target: T1, CYP3A4 (Homo sapiens, UniProt P08684); assay: Determination of compound Kiapp against recombinant CYP3A4 enzyme (BFC fluorescent substrate)
How it was run: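 Recombinant CYP3A4 (5.5 or 8 nM, with or without b5 depending on source) pre-incubated with inhibitor ≥30 min at room temperature in 100 mM sodium phosphate pH 7.0, 5 mM TCEP, 2% DMF. Reaction started with 200 uM NADPH and 5 uM BFC; initial fluorescence rates over 5 min fitted to Morrison tight-binding (non-partial) or Szedlacsek (partial) equations for Kiapp.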

CYP3A4 [2] = biological target: T1, CYP3A4; assay: Determination of IC50 against CYP3A4 by measurement of inhibition of testosterone metabolism (human liver microsomes, 6-β-OH-testosterone by LC-MS/MS); design: 0.1 mg/mL human liver microsomes; details: read-out: IC50 (Testo.)
Procedure: 2. Determination of IC50 Against CYP3A4 by Measurement of Inhibition of Testosterone Metabolism
This assay was performed using a standard 96 well plate design. […] The incubation substrate mix contains 25 μM testosterone, 0.1 mg/mL human liver microsomes, 1 mM NADPH, and potassium phosphate buffer (100 mM, pH 7.4). Quantitation of metabolite peak area ratio against an internal standard is determined by LC-MS/MS analysis. The production of 6-β-OH-testosterone from testosterone metabolism is determined after incubation for eight minutes by comparison to a standard curve generated for the metabolite
Samples were analyzed in the MRM mode using a Sciex API 3000 mass spectrometer (Applied Biosystems, Foster City, Calif.) with a Paradigm MS4 binary pump (Michrom BioResources Inc., Auburn, Calif.) and a LEAP CTC PAL autosampler (LEAP Technologies, Carrboro, N.C.). A Phenomenex Synergi, 4μ, Polar-RP, 10×2.0 mm column (Phenomenex, Torrance, Calif.) was used for separation with a mobile phase composition of: 0.1% formic acid in water (A) and: 0.1% formic acid in methanol (B). The following gradient was used: […]
The sample injection volume was 10 μL and flow was split post-column with 0.4 mL/min going to the mass spectrometer. Analysis was performed using the following API 3000 mass spectrometer settings: […]

CYP3A4 [3] = biological target: T1, CYP3A4; assay: Determination of IC50 against CYP3A4 by measurement of inhibition of midazolam metabolism (human liver microsomes, 1-hydroxymidazolam by LC-MS/MS); design: 0.1 mg/mL human liver microsomes; details: 2 μM midazolam, 0.1 mg/mL human liver microsomes
How it was run: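 Human liver microsomes (0.1 mg/mL) incubated 8 min with 2 μM midazolam and 1 mM NADPH in 100 mM potassium phosphate, pH 7.4. 1-Hydroxymidazolam quantified by LC-MS/MS (MRM) as peak area ratio to internal standard against a metabolite standard curve.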

[4] = Baculo. enzyme preparation, read-out: Kiapp (BFC, Baculo.)
[5] = Super. enzyme preparation, read-out: Kiapp (BFC, Super.)

T1 sequence (P08684 whole entry): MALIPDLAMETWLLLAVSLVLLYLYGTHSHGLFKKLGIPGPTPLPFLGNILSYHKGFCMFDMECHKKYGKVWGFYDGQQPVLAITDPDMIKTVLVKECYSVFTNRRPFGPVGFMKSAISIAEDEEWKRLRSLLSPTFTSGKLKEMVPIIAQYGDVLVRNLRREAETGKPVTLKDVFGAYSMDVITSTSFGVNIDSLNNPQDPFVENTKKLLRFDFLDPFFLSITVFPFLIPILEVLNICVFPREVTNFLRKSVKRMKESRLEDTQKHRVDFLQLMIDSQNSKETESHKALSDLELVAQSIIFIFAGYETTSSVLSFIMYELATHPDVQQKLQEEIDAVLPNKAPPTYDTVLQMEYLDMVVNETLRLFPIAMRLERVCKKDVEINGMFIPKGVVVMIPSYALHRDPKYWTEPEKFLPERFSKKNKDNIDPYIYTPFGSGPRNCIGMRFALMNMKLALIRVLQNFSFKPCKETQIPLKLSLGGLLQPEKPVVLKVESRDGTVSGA

Row | SMILES | Ki (CYP3A4 [1]; [4]) [nM] | Ki (CYP3A4 [1]; [5]) [nM] | IC50 (CYP3A4 [2]) [nM] | IC50 (CYP3A4 [3]) [nM]
1 | COc1cncc(NS(=O)(=O)c2ccccc2C(=O)NC2CCCC(C)C2)c1 (centres unmarked) [Example 202, 2-{[(5-methoxypyridin-3-yl)amino]sulfonyl}-N-(3-methylcyclohexyl)benzamide] | 84.2 | 33.4 | 7 | < 3
2 | COCCN(C(=O)c1ccccc1S(=O)(=O)Nc1cncc(OC)c1)C(C)C [Example 244, N-isopropyl-N-(2-methoxyethyl)-2-{[(5-methoxypyridin-3-yl)amino]sulfonyl}benzamide] | 45.6 | 26.8 | 52 | < 16
3 | CCC(C)CNC(=O)c1ccccc1S(=O)(=O)Nc1cncc(OC)c1 (centres unmarked) [Example 208, 2-{[(5-methoxypyridin-3-yl)amino]sulfonyl}-N-(2-methylbutyl)benzamide] | 57.3 | 16.1 | 19 | 9.5
4 | COc1cncc(NS(=O)(=O)c2ccccc2C(=O)N(C)CCc2ccccc2)c1 [Example 370, 2-{[(5-methoxypyridin-3-yl)amino]sulfonyl}-N-methyl-N-(2-phenylethyl)benzamide] | 52.9 | 19 | 8 | 12
5 | CC(C)(COCc1ccccc1)NC(=O)c1ccccc1S(=O)(=O)Nc1cccnc1 [Example 34, N-[2-(benzyloxy)-1,1-dimethylethyl]-2-[(pyridin-3-ylamino)sulfonyl]benzamide] | > 1000 | – | > 750 | > 750
6 | CCOc1ccncc1NS(=O)(=O)c1ccccc1C(=O)N(C)Cc1ccc(F)c(F)c1 [Example 251, N-(3,4-difluorobenzyl)-2-{[(4-ethoxypyridin-3-yl)amino]sulfonyl}-N-methylbenzamide] | 8.6 | 5.31 | 12 | 10
7 | COc1cccc(CCNC(=O)c2ccccc2S(=O)(=O)Nc2cccnc2)c1 [Example 60, N-[2-(3-methoxyphenyl)ethyl]-2-[(pyridin-3-ylamino)sulfonyl]benzamide] | 151 | – | 24 | 17
8 | COc1cncc(NS(=O)(=O)c2ccc(F)cc2C(=O)NCCC(C)C)c1 [Example 303, 5-fluoro-2-{[(5-methoxypyridin-3-yl)amino]sulfonyl}-N-(3-methylbutyl)benzamide] | 118 | 31.6 | 156 | 30
9 | CC(C)(C)NC(=O)c1ccccc1S(=O)(=O)Nc1cccnc1 [Example 14, N-(tert-butyl)-2-[(pyridin-3-ylamino)sulfonyl]benzamide] | 503 | – | 60 | –
10 | CC(C)(CNC(=O)c1ccccc1S(=O)(=O)Nc1cccnc1)N1CCOCC1 [Example 32, N-(2-methyl-2-morpholin-4-ylpropyl)-2-[(pyridin-3-ylamino)sulfonyl]benzamide] | – | – | > 750 | 413
11 | O=C(c1ccccc1S(=O)(=O)Nc1cccnc1)N1CCN(c2ccc(F)cc2)CC1 [Example 13, 2-{[4-(4-fluorophenyl)piperazin-1-yl]carbonyl}-N-pyridin-3-ylbenzenesulfonamide] | 251 | – | 24 | –
12 | CC(C)(CN1CCOCC1)NC(=O)c1ccccc1[S+]([O-])Cc1cccnc1 (centres unmarked) [Example 70, N-(1,1-dimethyl-2-morpholin-4-ylethyl)-2-[(pyridin-3-ylmethyl)sulfinyl]benzamide] | 800 | – | 421 | –
13 | Cc1cncc(NS(=O)(=O)c2ccccc2C(=O)N(C)Cc2ccc(C(F)(F)F)cc2)c1 [Example 145, N-methyl-2-{[(5-methylpyridin-3-yl)amino]sulfonyl}-N-[4-(trifluoromethyl)benzyl]benzamide] | 43.9 | 5.9 | – | 18
14 | CN(Cc1ccc(C(F)(F)F)cc1)C(=O)c1ccccc1S(=O)(=O)Nc1cccnc1 [Example 140, N-methyl-2-[(pyridin-3-ylamino)sulfonyl]-N-[4-(trifluoromethyl)benzyl]benzamide] | 160 | 17.3 | – | 56
